Data taken from patent US20240409536A1, “COMPOUNDS AND METHODS FOR MODULATING SPLICING” (REMIX THERAPEUTICS INC., priority 2021, published 2024).

How the values were obtained:
HTT mRNA = test: Gene panel canonical junction qPCR assay, HTT CJ mRNA decrease; format: cell-based, human; conditions: Homo sapiens, canonical junction qPCR, read-out: HTT IC50 (decrease in CJ mRNA levels)
How it was run: (§1)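 IC50 values describe loss of canonical-junction transcript, fitted by 4-parameter logistic to percent response derived from fixed ΔCt windows. Read-out: RT-qPCR on lysates of compound-treated K562 or A673 cells, probes overlapping the exon junction, ΔΔCt versus housekeeping gene and DMSO control.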

MYB mRNA = test: Gene panel canonical junction qPCR assay, MYB CJ mRNA decrease; format: cell-based, human; conditions: Homo sapiens, canonical junction qPCR, read-out: MYB IC50 (decrease in CJ mRNA levels)
How it was run: as §1

SMN2 mRNA = test: Gene panel canonical junction qPCR assay, SMN2 CJ mRNA decrease; format: cell-based, human; conditions: Homo sapiens, canonical junction qPCR, read-out: SMN2 IC50 (decrease in CJ mRNA levels)
How it was run: as §1

Target C mRNA = test: Gene panel canonical junction qPCR assay, Target C CJ mRNA decrease; format: cell-based; conditions: Homo sapiens, canonical junction qPCR, read-out: Target C IC50 (decrease in CJ mRNA levels)
How it was run: as §1

Target C = test: HiBiT protein abundance assay, Target C (K562 HiBiT knock-in cells); format: cell-based, human; conditions: 24 hours
How it was run: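 Protein abundance read by HiBiT lytic luminescence after 24 h compound exposure (37 °C) of knock-in K562 cells, 10000 cells/well in IMDM+1% FBS. Dosing: 10 points, 3-fold, top 10 μM final, ≤0.25% DMSO. Four-parameter logistic fit gave concentration reducing abundance to 50% of untreated control.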

K562 cells = test: Cell Titer Glo 2.0 cell viability assay in K562 cells; conditions: 72 hours

SMILES	IC50 (HTT mRNA) [µM]	IC50 (MYB mRNA) [µM]	IC50 (SMN2 mRNA) [µM]	IC50 (Target C mRNA) [µM]	IC50 (Target C) [µM]	Viability (K562 cells)
Cc1cn2cc(NC(=O)c3ccc([C@@]45CCNCC4C5)c4nccnc34)cc(F)c2n1 (stereo in doubt) [Compound 248, 8-{3-azabicyclo[4.1.0]heptan-6-yl}-N-{8-fluoro-2-methylimidazo[1,2-a]pyridin-6-yl}quinoxaline-5-carboxamide 2,2,2-trifluoroacetate]	1 to 10	0.1 to 1	< 0.1	1 to 10	> 10	B (B represents 100-1000 nM)
Cc1cn2cc(NC(=O)c3ccc(N4CCNCC4)c4nccnc34)cc(F)c2n1 [Compound 111]	1 to 10	0.1 to 1	< 0.1	1 to 10	1 to 10	B (B represents 100-1000 nM)
Cc1cn2nc(NC(=O)c3ccc(C4CCNCC4)c4ccnnc34)cc(C)c2n1 [Compound 113]	1 to 10	1 to 10	0.1 to 1	1 to 10	1 to 10	–
Cn1cc2ccc(NC(=O)c3ccc(N4CCNCC4)c4ccnnc34)cc2n1 [Compound 115]	> 10	> 10	> 10	> 10	> 10	D (D represents greater than 10 μM in K562 cells)
Cn1cc2c(F)cc(NC(=O)c3ccc(N4CCNCC4)c4ccnnc34)cc2n1 [Compound 116]	> 10	> 10	> 10	> 10	> 10	C (C represents 1000-9999 nM)
Cc1nc2c(F)cc(NC(=O)c3ccc(N4CCNCC4)c4ccnnc34)cc2s1 [Compound 118]	0.1 to 1	0.1 to 1	< 0.1	0.1 to 1	0.1 to 1	A (A represents <100 nM)
Cc1cn2cc(NC(=O)c3ccc(N4CCNCC4)c4ccnnc34)c(C)cc2n1 [Compound 119]	1 to 10	1 to 10	< 0.1	1 to 10	1 to 10	B (B represents 100-1000 nM)
Cc1cn2cc(NC(=O)c3ccc(N4CCNCC4)c4ccnnc34)ncc2n1 [Compound 120]	> 10	0.1 to 1	< 0.1	> 10	> 10	C (C represents 1000-9999 nM)
CNC1CCN(c2ccc(C(=O)Nc3cc(F)c4nc(C)cn4c3)c3nc(OCCOC)ccc23)C1 (centres unmarked) [Compound 234]	1 to 10	0.1 to 1	< 0.1	1 to 10	1 to 10	B (B represents 100-1000 nM)
CN[C@@H]1CCN(c2ccc(C(=O)Nc3cc(F)c4nc(C)cn4c3)c3nnccc23)C1 [Compound 238, (R)—N-(8-fluoro-2-methylimidazo[1,2-a]pyridin-6-yl)-5-(3-(methylamino)pyrrolidin-1-yl)cinnoline-8-carboxamide]	1 to 10	< 0.1	< 0.1	1 to 10	1 to 10	B (B represents 100-1000 nM)
CN[C@H]1CCN(c2ccc(C(=O)Nc3cc(F)c4nc(C)cn4c3)c3nnccc23)C1 [Compound 239, (S)—N-(8-fluoro-2-methylimidazo[1,2-a]pyridin-6-yl)-5-(3-(methylamino)pyrrolidin-1-yl)cinnoline-8-carboxamide]	1 to 10	< 0.1	< 0.1	1 to 10	1 to 10	B (B represents 100-1000 nM)
Cc1cn2cc(NC(=O)c3ccc(C4=CCNCC4)c4nccnc34)cc(F)c2n1 [Compound 240, N-{8-fluoro-2-methylimidazo[1,2-a]pyridin-6-yl}-8-(1,2,3,6-tetrahydropyridin-4-yl)quinoxaline-5-carboxamide]	< 0.1	< 0.1	< 0.1	0.1 to 1	0.1 to 1	–
Cc1cn2cc(NC(=O)c3ccc(N4CC[C@@H](N(C)C)C4)c4nccnc34)cc(F)c2n1 [Compound 242, 8-[(3R)-3-(dimethylamino)pyrrolidin-1-yl]-N-{8-fluoro-2-methylimidazo[1,2-a]pyridin-6-yl}quinoxaline-5-carboxamide]	> 10	0.1 to 1	< 0.1	> 10	> 10	B (B represents 100-1000 nM)
COc1cnc2c(N3CC[C@@H](N(C)C)C3)ccc(C(=O)Nc3cc(F)c4nc(C)cn4c3)c2n1 [Compound 244, 8-[(3R)-3-(dimethylamino)pyrrolidin-1-yl]-N-{8-fluoro-2-methylimidazo[1,2-a]pyridin-6-yl}-3-methoxyquinoxaline-5-carboxamide]	0.1 to 1	< 0.1	< 0.1	0.1 to 1	0.1 to 1	A (A represents <100 nM)
Cc1cn2cc(NC(=O)c3ccc([C@H]4CCNC4)c4nccnc34)cc(F)c2n1 [Compound 246]	1 to 10	0.1 to 1	< 0.1	> 10	1 to 10	B (B represents 100-1000 nM)
Cc1cn2cc(NC(=O)c3ccc(N4C5CNCC54)c4nccnc34)cc(F)c2n1 (centres unmarked) [Compound 262, 8-{3,6-diazabicyclo[3.1.0]hexan-6-yl}-N-{8-fluoro-2-methylimidazo[1,2-a]pyridin-6-yl}quinoxaline-5-carboxamide]	0.1 to 1	0.1 to 1	< 0.1	0.1 to 1	0.1 to 1	–
Cc1cn2cc(NC(=O)c3ccc(N4C[C@@H](C)N[C@@H](C)C4)c4ncc(O)nc34)cc(F)c2n1 [Compound 275]	> 10	> 10	> 10	> 10	> 10	–
Cc1cn2cc(NC(=O)c3ccc(N4C[C@@H](C)N[C@@H](C)C4)c4nccnc34)nc(Cl)c2n1 [Compound 279]	> 10	< 0.1	< 0.1	> 10	> 10	–
COc1ncc2c(N3C[C@@H](C)N[C@@H](C)C3)ccc(C(=O)Nc3cc(F)c4nc(C)cn4c3)c2n1 [Compound 300]	0.1 to 1	< 0.1	< 0.1	0.1 to 1	0.1 to 1	–
Cc1cn2cc(NC(=O)c3ccc(N4C[C@@H](C)N[C@H](C)C4)c4nccnc34)cc(F)c2n1 [Compound 312]	1 to 10	< 0.1	< 0.1	> 10	1 to 10	–
Cc1cn2cc(NC(=O)c3ccc(N4C[C@H](C)N[C@@H](C)C4)c4nccnc34)cc(F)c2n1 [Compound 313]	1 to 10	< 0.1	< 0.1	1 to 10	1 to 10	–
C[C@@H]1CN(c2ccc(C(=O)Nc3cc(F)c4nn(C)cc4c3)c3nccnc23)C[C@@H](C)N1 [Compound 335]	1 to 10	0.1 to 1	< 0.1	> 10	1 to 10	–
Cc1cn2cc(NC(=O)c3ccc(N4C[C@@H](C)N(O)[C@@H](C)C4)c4nccnc34)cc(F)c2n1 [Compound 355]	> 10	0.1 to 1	< 0.1	> 10	1 to 10	–
